What all share (format): cell-based
The subject of assay [1] is HT-29 human colon cancer cells. Description: MTT cell growth inhibition, HT-29. Conditions: for IC50: Homo sapiens; for Ratio NSAID/NOSH-NSAID, HT-29: fold-enhancement in potency over the parent compound. On the procedure: HT-29, SW-480 and HCT-15 human colon adenocarcinoma, MIA PaCa-2 and BxPC-3 human pancreatic cancer, LNCAP human prostate cancer, A549 human lung cancer, MCF-7 (estrogen receptor positive), MDA-MB 231 and SK-BR-3 (estrogen receptor negative) human breast cancer, and Jurkats human leukemia cell lines were obtained from American Type Tissue Collection (Manassas, Va.). All cells lines were grown as monolayers except for the Jurkats which were grown in suspension. The pancreatic and breast cancer cells were grown in Dulbecco's modified Eagle's medium, the prostate, Jurkat, SW-480 and HCT-15 colon cells were grown in RPMI 1640 medium, the lung cells were grown in F-12 and the colon HT-29 cells were grown in McCoy 5A. All media were supplemented with 10% fetal calf serum (Invitrogen, Carlsbad, Calif.) penicillin (50 U/ml), and streptomycin (50 μg/ml) (Invitrogen, Carlsbad, Calif.). Cells were seeded on culture dishes at a density of 25×10^3 cells/cm^2 and incubated at 37° C. in 5% CO2 and 90% relative humidity. Single cell suspensions were obtained by trypsinization (0.05% trypsin/EDTA), and cells were counted using a hemocytometer. Viability was determined by the trypan blue dye exclusion method.
(§1) Cell growth inhibitory effect of NOSH compounds were measured using a colorimetric MTT assay kit (Roche, Indianapolis, Ind.). Cancer cells were plated in 96-well plates at a density of 50,000 cells/well. The cells were incubated for 24 h with different concentrations of NOSH compounds. After the indicated time, 10 μl of MTT dye (3-[4,5-dimethylthiazol-2-yl]-2,5-diphenyl tetrazolium bromide, 5 mg/ml in phosphate buffered saline), was added to each well, and the plates were incubated for 2 hours at 37° C. Then, the media was aspirated, and add 100 μl of the solubilization solution (10% SDS in 0.01 M HCl) was added to each well to solubilize the formant crystals. The absorbance of the plates was measured on an ELISA reader at a wavelength of 570 nm. Each sample was performed in triplicate, and the entire experiment was repeated three times.
HT-29 human colon cancer cells were obtained from American Type Tissue Collection (Manassas, Va.) and grown as monolayer in McCoy 5A media that was supplemented with 10% fetal calf serum (Invitrogen, Carlsbad, Ca.), penicillin (50 U/ml), and streptomycin (50 μg/ml) (Invitrogen, Carlsbad, Calif.).
Growth inhibition was measured using a colorimetric MTT assay kit (Roche, Indianapolis, Ind.). Proliferation (PCNA) was assessed using an ELISA kit from Calbiochem, (La Jolla, Calif.). Cell cycle phase distributions and apoptosis of control and treated cells were determined as previously described. All methods are described in Chattopadhyay et al., Biochemical Pharmacology, 2012, 83(6), 715-722.
HT-29, SW-480 and HCT-15 human colon adenocarcinoma, MIA PaCa-2 and BxPC-3 human pancreatic cancer, LNCAP human prostate cancer, A549 and H383 human lung cancer, MCF-7, MDA-MB 231 and SK-BR-3 human breast cancer and Jurkat T cell human leukemia cell lines were obtained from American Type Tissue Collection (Manassas, Va.) All cells lines were grown as monolayers except for the Jurkat T cells which were grown as suspension culture. The pancreatic and breast cancer cells were grown in Dulbecco's modified Eagle's medium, the prostate, Jurkat, SW-480 and HCT-15 colon cells were grown in RPMI 1640 medium, the lung cells were grown in F-12 and the colon HT-29 cells were grown in McCoy 5A. All media were supplemented with 10% fetal calf serum (Invitrogen, Carlsbad, Calif.) penicillin (50 U/ml), and streptomycin (50 μg/ml) (Invitrogen, Carlsbad, Calif.). Cells were seeded on culture dishes at a density of 25×10^3 cells/cm^2 and incubated at 37° C. in 5% CO2 and 90% relative humidity. Single cell suspensions were obtained by trypsinization (0.05% trypsin/EDTA), and cells were counted using a hemacytometer. The final DMSO concentration was adjusted in all media to 1%. Viability was determined by the trypan blue dye exclusion method. […]

Assay [2] has as its system SW-480 human colon adenocarcinoma. The assay is described as follows: MTT cell growth inhibition, SW480. Conditions: for IC50: Homo sapiens, SW480; for Ratio NSAID/NOSH-NSAID, SW480: fold-enhancement in potency over the parent compound. On the procedure: (§2) All cells lines were grown as monolayers except for the Jurkats which were grown in suspension. […] All media were supplemented with 10% fetal calf serum (Invitrogen, Carlsbad, Calif.) penicillin (50 U/ml), and streptomycin (50 μg/ml) (Invitrogen, Carlsbad, Calif.). Cells were seeded on culture dishes at a density of 25×10^3 cells/cm^2 and incubated at 37° C. in 5% CO2 and 90% relative humidity. Single cell suspensions were obtained by trypsinization (0.05% trypsin/EDTA), and cells were counted using a hemocytometer. Viability was determined by the trypan blue dye exclusion method.
as §1
(§3) All media were supplemented with 10% fetal calf serum (Invitrogen, Carlsbad, Calif.) penicillin (50 U/ml), and streptomycin (50 μg/ml) (Invitrogen, Carlsbad, Calif.). Cells were seeded on culture dishes at a density of 25×10^3 cells/cm^2 and incubated at 37° C. in 5% CO2 and 90% relative humidity. Single cell suspensions were obtained by trypsinization (0.05% trypsin/EDTA), and cells were counted using a hemacytometer. The final DMSO concentration was adjusted in all media to 1%. Viability was determined by the trypan blue dye exclusion method.
(§4) Cell growth inhibitory effect of all NOSH-NSAIDs was measured using a colorimetric MTT assay kit (Roche, Indianapolis, Ind.). Cancer cells were plated in 96-well plates at a density of 30,000-50,000 cells/well depending on cell type. The cells were incubated for 24 hours with different concentrations of NOSH-NSAIDs. After the indicated time, 10 μL of MTT dye (3-[4,5-dimethylthiazol-2-yl]-2,5-diphenyl tetrazolium bromide, 5 mg/mL in phosphate buffered saline), was added to each well, and the plates were incubated for 2 hours at 37° C. Then, the media was aspirated, and 100 μL of the solubilization solution (10% SDS in 0.01 M HCl) was added to each well to solubilize the formant crystals. The absorbance of the plates was measured on a spectrophotometric plate reader at a wavelength of 570 nm. Each experiment was performed in triplicate, and the entire experiment was repeated three times.

Assay [3] has as its system SK-BR-3 human breast cancer. The assay is described as follows: MTT cell growth inhibition, SKBR3. Conditions: for IC50: Homo sapiens, SK-BR-3; for Ratio NSAID/NOSH-NSAID, SKBR3: fold-enhancement in potency over the parent compound. On the procedure: as §2, §1, §3, §4
The subject of assay [4] is Jurkat T cell human leukemia. The assay is described as follows: MTT cell growth inhibition, Jurkat. Particulars: for IC50: Homo sapiens, Jurkat; for Ratio NSAID/NOSH-NSAID, Jurkat: fold-enhancement in potency over the parent compound. On the procedure: as §2, §1, §3, §4
In assay [5] the test system is HCT-15 human colon adenocarcinoma. Description: MTT cell growth inhibition, HCT15. Conditions: for IC50: Homo sapiens, HCT-15; for Ratio NSAID/NOSH-NSAID, HCT15: fold-enhancement in potency over the parent compound. On the procedure:
as §2, §1, §3, §4

The mark [6] stands for this setting: HT-29, 24 hours, read-out: IC50 for cell growth inhibition, Colon HT-29.
The mark [7] stands for this setting: HT-29, 24 h (Table 5), in combinations the IC50 of ASA with fixed concentrations of SNAP and/or ADT-OH, read-out: IC50 at 24 hours for HT-29 cell growth inhibition.
[8] abbreviates: HT-29 cells, 24 h, read-out: IC50, 24 h.
[9] abbreviates: HT-29 colon cancer cells, 24 hours (Table 3), read-out: IC50 at 24 hours for cell growth inhibition.
[10] abbreviates: HT-29, 24 hours (Table 7), read-out: IC50 for cell growth inhibition, Colon HT-29.

The structures appear in SMILES notation. Read-outs that look alike come from different tables or passages of the source. Bounds are passed on as bounds.

For the compound `O=C(CCCO[N+](=O)[O-])Oc1ccccc1C(=O)Oc1ccc(-c2cc(=S)ss2)cc1` [NOSH-1, 4-(3-thioxo-3H-1,2-dithiol-5-yl)phenyl 2-((4-(nitrooxy)butanoyl)oxy)benzoate], in assay [1] (HT-29, 24 h), the “potency of intact NOSH-1 over the combination ASA plus SNAP and ADT-OH” value was “approximately 9000 fold”. Further, the “Potency enhancement (ratio of IC50 values ASA/NOSH-1), 24 h” value in assay [1] (HT-29 cells, 24 h) was >100,000 fold. The half-inhibitory concentration (IC50) came out at 0.048 ± 0.003 µM in assay [1] (setting [6]); 0.05 ± 0.005 µM in assay [1] (setting [7]); 0.0455 ± 0.0025 µM in assay [1] (setting [8]); 0.05 ± 0.003 µM in assay [1] (setting [9]); 0.06 ± 0.004 µM in assay [2] (24 hours); 0.075 ± 0.005 µM in assay [3] (24 hours). In addition, the concentration for half-maximal inhibition (IC50) turned out to be 0.1 ± 0.008 µM in assay [4] (24 hours) and 0.05 ± 0.005 µM in assay [5] (24 hours).
For the compound `NC(=S)c1ccc(OC(=O)c2ccccc2OC(=O)CCCO[N+](=O)[O-])cc1` [NOSH-3, 4-carbamothioylphenyl 2-((4-(nitrooxy)butanoyl)-oxy)benzoate], the IC50 in assay [1] (setting [6]) worked out at 7.5 ± 0.355 µM; in assay [2] (24 hours) it was 5.3 ± 0.24 µM; in assay [3] (24 hours) it was 6.5 ± 0.268 µM; in assay [4] (24 hours) it was 7 ± 0.321 µM; in assay [5] (24 hours), 5.9 ± 0.305 µM.
Regarding `CC(=O)Oc1ccccc1C(=O)O` [ASA, aspirin, reference compound], the IC50 in assay [1] (setting [7]) was more than 1000 µM; in assay [1] (setting [8]), more than 5000 µM; in assay [1] (setting [9]) it was more than 5000 µM.
In the case of `CC1=C(CC(=O)O)c2cc(F)ccc2/C1=C\c1ccc([S+](C)[O-])cc1` (stereo not drawn) [sulindac, reference compound], the IC50 stood at 800 µM in assay [1] (setting [10]); 710 µM in assay [2] (24 hours (Table 7)); 845 µM in assay [3] (24 hours (Table 7)); 699 µM in assay [4] (24 hours (Table 7)); 850 µM in assay [5] (24 hours (Table 7)).
Take `O=C(CCC(=O)Oc1ccccc1C(=O)Oc1ccc(-c2cc(=S)ss2)cc1)OCCCCO[N+](=O)[O-]` [NOSH-2, 4-(nitrooxy)butyl (2-((4-(3-thioxo-3H-1,2-dithiol-5-yl)phenoxy)carbonyl)phenyl) succinate]: the IC50 in assay [1] (setting [6]) came to 0.08 ± 0.005 µM; in assay [2] (24 hours), 0.097 ± 0.007 µM; in assay [3] (24 hours) it was 0.088 ± 0.007 µM; in assay [4] (24 hours), 0.09 ± 0.005 µM; in assay [5] (24 hours), 0.09 ± 0.006 µM.
`COc1ccc2cc([C@H](C)C(=O)O)ccc2c1` [naproxen, reference compound]: the 50% inhibitory concentration (IC50) in assay [1] (setting [10]) was found to be 2780 µM.
For `CC1=C(CC(=O)Oc2ccc(OC(=O)CCCO[N+](=O)[O-])c(C(=O)Oc3ccc(-c4cc(=S)ss4)cc3)c2)c2cc(F)ccc2/C1=C/c1ccc([S+](C)[O-])cc1` (stereo not drawn) [NOSH-8, (E)-4-(3-thioxo-3H-1,2-dithiol-5-yl)phenyl 5-(2-(5-fluoro-2-methyl-1-(4-(methylsulfinyl)benzylidene)-1H-inden-3-yl)acetoxy)-2-((4-(nitrooxy)butanoyl)oxy)benzoate], the IC50 in assay [1] (setting [10]) was 0.089 µM; in assay [2] (24 hours (Table 7)), 0.11 µM; in assay [3] (24 hours (Table 7)), 0.12 µM; in assay [4] (24 hours (Table 7)), 0.27 µM; in assay [5] (24 hours (Table 7)), 0.11 µM. The “Ratio NSAID/NOSH-NSAID, HT-29” value in assay [1] was 8,988. For the same compound, the “Ratio NSAID/NOSH-NSAID, SW480” value in assay [2] is recorded as 6,454. Further, the “Ratio NSAID/NOSH-NSAID, SKBR3” value in assay [3] is reported as 7,041. Further, in assay [4], the “Ratio NSAID/NOSH-NSAID, Jurkat” value was 2,588. In addition, in assay [5], the “Ratio NSAID/NOSH-NSAID, HCT15” value is listed as 7,727.
Turning to `O=C(CCCC[C@@H]1CCSS1)Oc1ccccc1C(=O)OCCCCO[N+](=O)[O-]` [NOSH-4, (R)-4-(nitrooxy)butyl 2-((5-(1,2-dithiolan-3-yl)pentanoyl)oxy)benzoate], the 50% inhibitory concentration (IC50) worked out at 0.3 ± 0.035 µM in assay [1] (setting [6]); 0.6 ± 0.025 µM in assay [2] (24 hours); 0.55 ± 0.028 µM in assay [3] (24 hours); 0.24 ± 0.011 µM in assay [4] (24 hours); 0.52 ± 0.021 µM in assay [5] (24 hours).
On to `CC(C(=O)Oc1ccc(-c2cc(=S)ss2)cc1)c1ccc2cc(OC(=O)CCCO[N+](=O)[O-])ccc2c1` (stereo not drawn) [NOSH-7, 6-(1-oxo-1-(4-(3-thioxo-3H-1,2-dithiol-5-yl)phenoxy)propan-2-yl)naphthalen-2-yl 4-(nitrooxy)butanoate], for which the half-maximal inhibitory concentration (IC50) amounted to 0.08 µM in assay [1] (setting [10]); 0.098 µM in assay [2] (24 hours (Table 7)); 0.1 µM in assay [3] (24 hours (Table 7)); 0.1 µM in assay [4] (24 hours (Table 7)); 0.1 µM in assay [5] (24 hours (Table 7)). Moreover, the “Ratio NSAID/NOSH-NSAID, HT-29” value in assay [1] is 34,687. The “Ratio NSAID/NOSH-NSAID, SW480” value in assay [2] was 31,734. In addition, the “Ratio NSAID/NOSH-NSAID, SKBR3” value in assay [3] was 28,900. The “Ratio NSAID/NOSH-NSAID, Jurkat” value in assay [4] was 25,500. The “Ratio NSAID/NOSH-NSAID, HCT15” value in assay [5] is listed as 28,500.

For the origin of these results see patent publication US10450260B2, “NO- and H2S-releasing compounds” (RESEARCH FOUNDATION OF THE CITY UNIVERSITY OF NEW YORK, priority 2011, dated 2019).
